Reference: patent publication US20220193241A1, “AGENT TARGETING DOUBLE-MEMBRANE ORGANELLE DNA” (CHIBA-PREFECTURE, priority 2019, published 2022)

Assays:
Assay type in all cases: cell-based
[1] = test system: A549 cells; test: WST assay of cell proliferation (CCC021-TPP); conditions: Homo sapiens, 96 h; A549, 4 days
Experimental: (§1) The proliferation suppressive effect of CCC021-TPP on cells having the A14582G mtDNA mutation was evaluated by WST assay. Both the mitochondrial DNA mutated cell line A549 and a PC14 cell line having no mutation were inoculated at 1×10^3 cells/well to 96-well plates (Thermo Fisher Scientific), cultured for 24 hours, and then treated with CCC021-TPP (final concentration: 0, 1, 5, 10, 20, 25, 50, and 100 μM). The cells were further cultured for 4 days and then morphologically observed under optical microscope IX71 (OLYMPUS, Tokyo, Japan). Then, cell survival rates were calculated using Cell counting kit-8 (DOJINDO, Kumamoto, Japan) according to the instruction manual. DMSO (FUJIFILM Wako Pure Chemical Corp.) (final concentration: 1%) was added as a control to cells.
(§2) IC50 was calculated according to the following expression:
(§3) IC50=10(LOG(A/B)×(50−C)/(D−C)+LOG(B))

[2] = test system: PC14 cells; test: WST assay of cell proliferation (CCC021-TPP); conditions: PC14, 4 days
Experimental: as §1, §2, §3

[3] = test system: A549 cells; test: MTT cell proliferation assay
Experimental: (§4) The A549 cells and the PC14 cells were inoculated at 5×10^3 cells/dish and 1×10^4 cells/dish, respectively, to 35 mm glass base dishes (IWAKI, Japan), cultured for 24 hours, and then treated with CCC021-TPP (final concentration: 20 μM). Further, 24 hours later, the culture solution was discarded, and a DMEM culture solution containing Mito Tracker(R) Red CMXRos (Life Technologies, USA) was added to attain 100 nM. 30 minutes later, the cells were washed twice with PBS, then fixed in 4% PFA for 30 minutes, then medium-replaced with PBS, preserved at 4° C., immunostained with the antibody by the method described in Example 1, and observed under confocal laser microscope SP8 (Leica, Germany). […] A549 and PC14 were each inoculated at 5×10^2 cells/well to 16 wells of a 96-well plate, cultured for 24 hours, and then treated with CCC021-TPP at 0, 1, 2, 5, 10, 25, and 50 μM each for 2 wells. 5 days later, the cells were reacted at room temperature for 2 hours using CytoSelect™ MTT Cell Proliferation Assay (Cosmo Bio Co., Ltd.), followed by the measurement of absorbance at 590 nm with SPECTRAFLUOR Plus (Tecan Group Ltd.) to conduct a rechallenge experiment of cell proliferation. […] 7 days later, as for change in the live cell numbers of the A549 cells and the PC14 cells, the live cell numbers were measured by trypan blue staining to experimentally examine cell survival rates.

[4] = test system: PC14 cells; test: MTT cell proliferation assay; conditions: PC14, 5 days
Experimental: as §4

[5] = test system: A549 cells; test: SA-β-Gal staining (senescence marker β-galactosidase); conditions: 20 μM, 5 days
Experimental: In order to study whether cellular senescence was induced, the activity of a senescence marker β-galactosidase was determined with SPiDER-β-Gal (DOINDO) in the A549 cells and the PC14 cells after CCC021-TPP administration. 1000 cells were inoculated to a 35 mm dish and then cultured for 24 hours. Then, CCC021-TPP was administered (final concentration: 20 μM), and the cells were cultured for 5 days, washed twice with Hanks' balanced salt solution (HBSS) (pH 7.3), then treated with 500 μL of 4% paraformaldehyde at room temperature for 3 minutes, then washed twice with HBSS again, then treated with 500 μl of SPiDER-β-Gal Working Solution at 37° C. for 30 minutes, then washed once with HBSS, and observed under SP8 confocal microscope.

[6] = test system: A549 cells; test: Autophagy by anti-LC3 / cytochrome C immunofluorescent staining; conditions: 20 μM, 4-day treatment
Description: A possible cause of cellular senescence was the induction of mitochondrion-specific autophagy (mitophagy) of mutant mitochondria by the administration of CCC021-TPP. It is considered that the excessive production of reactive oxygen species in association therewith was involved in the induction of cellular senescence.

[7] = test system: A549 cells; test: GFP-LC3 transfection and Mito Tracker Red fluorescence observation; conditions: 20 μM, 4 days
Experimental: 5×10^4 cells were inoculated and cultured for 24 hours. Then, 500 μL of OptiMEM, 10 μg of vector DNA (7.5 μL of P3000 reagent), and 20 μL of Lipofectamine(R) 3000 (Thermo Fisher Scientific) were added to the cells, which were then left at room temperature for 5 minutes for transfection and cultured for 24 hours. Then, 1000 subcultured cells were inoculated, cultured with 20 μM CCC021-TPP for 4 days, and then confirmed by fluorescence observation with Mito Tracker Red.

[8] = test system: A549 cells; test: ROS production with MitoSOX Red; conditions: 10 μM, 24 hours
Experimental: (§5) In order to confirm the production induction of reactive oxygen species (ROS) by mitophagy, the production of reactive oxygen species was fluorescently observed with MitoSOX Red (Invitrogen). 10^4 A549 or PC14 cells were inoculated, cultured for 10 hours, then treated with 10 μM CCC021-TPP for 24 hours, then washed with PBS, and treated at 37° C. for 10 minutes with MitoSOX Red dissolved in 13 μL of DMSO and diluted into 5 μM (final concentration) with PBS. The cells were washed with PBS and then observed under SP8 confocal microscope.

[9] = test system: PC14 cells; test: ROS production with MitoSOX Red; conditions: 10 μM, 24 hours
Experimental: as §5

[10] = test system: A549 cells; test: Synthetic lethality: cell morphology with CCC021-TPP and ABT-199 or A1155463; conditions: 4 days
Experimental: It was confirmed with the BCL2- and BCL-XL-specific inhibitor that the suppression of cell death in the cellular senescence of the A549 cells was presumably due to the BCL pathway. The type of BCL pathway inhibition, combined use of which could induce cell death (apoptosis) in the senescent cells of the A549 cells was studied. Five hundred A549 cells were inoculated to a 96-well plate and cultured for 24 hours. Then, change in cell morphology was photographed under an optical microscope either without administration (i.e., after DMSO treatment) or 4 days after treatment with 20 μM CCC021-TPP and 10 μM BCL2 inhibitor ABT-199 (compound venetoclax of No. 33 in FIG. 55-10) or 10 μM BCL-XL inhibitor A1155463 (compound of No. 16 in FIG. 55-6) each alone, or treatment by combined use of the same concentration of CCC021-TPP with the same concentration of ABT-199 or A1155463.

`CN(C)CCCNC(=O)CCNC(=O)c1cc(NC(=O)c2cc(NC(=O)CCNC(=O)c3nc(NC(=O)c4cc(NC(=O)c5cc(NC(=O)CCNC(=O)CCCC[P+](c6ccccc6)(c6ccccc6)c6ccccc6)cn5C)cn4C)cn3C)cn2C)cn1C` [CCC021-TPP] was tested, and the IC50 [1] was 78.9 µM, the “IC50 (WST assay)” value [2] was “incalculable” and the “cell morphology after administration” value ([3]; A549) was “senescent morphology”. For the same molecule, the IC50 ([3]; Homo sapiens, 120 h, A549, 5 days) was 7.97 µM, the “IC50 (MTT assay)” value [4] was “incalculable” and the “activity of senescence marker β-galactosidase” value [5] was “elevated activity of β-galactosidase was confirmed”. The “mitophagy (colocalization of LC3 and cytochrome C)” value [6] was “mitophagy was induced”, the “localization of GFP-LC3 on mitochondria” value [7] was “colocalized with red fluorescence from Mito Tracker Red” and the ROS production [8] was “excessive induction of ROS production in cytoplasm was observed”. For the same molecule, the ROS production [9] was “rarely observed”, the “cell death (morphology)” value ([10]; 20 μM CCC021-TPP and 10 μM A1155463 used concurrently) was “markedly increased numbers of cells that underwent apoptosis” and the “cell death (morphology)” value ([10]; single administration: 20 μM CCC021-TPP, 10 μM ABT-199, 10 μM A1155463) was “Any finding indicating cell death was not obtained”.
